Test results: the supplement of paper PMC8967900

Key:
Assay in all cases: selective drug sensitivity score (sDSS, relative to normal bone marrow) (sDSS (score)); higher = more potent and effective on the cell line relative to normal bone marrow cells
Conditions in all cases: 72 h
TMD5 = tested on: TMD5
MOLT-16 = tested on: MOLT-16
COG-LL-394h = tested on: COG-LL-394h
KASUMI-10 = tested on: KASUMI-10
CCRF-CEM = tested on: CCRF-CEM
P30-OHKUBO = tested on: P30-OHKUBO
COG-LL-332h = tested on: COG-LL-332h
KOPN-8 = tested on: KOPN-8
MHH-CALL-2 = tested on: MHH-CALL-2
MOLT-14 = tested on: MOLT-14
NALM-6 = tested on: NALM-6
REH = tested on: REH
P12-ICHIKAWA = tested on: P12-ICHIKAWA
RCH-ACV = tested on: RCH-ACV
PEER = tested on: PEER
PF-382 = tested on: PF-382
NALL-1 = tested on: NALL-1
HAL-01 = tested on: HAL-01
ALL-PO = tested on: ALL-PO
RPMI-8402 = tested on: RPMI-8402
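Note: ALL cell lines in 384-well plates, five doses spanning 10,000-fold, each plate scaled between vehicle and 100 µmol/L benzalkonium chloride controls, sDSS an adapted area-under-curve metric.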

SMILES | selective drug sensitivity score (TMD5) | selective drug sensitivity score (MOLT-16) | selective drug sensitivity score (COG-LL-394h) | selective drug sensitivity score (KASUMI-10) | selective drug sensitivity score (CCRF-CEM) | selective drug sensitivity score (P30-OHKUBO) | selective drug sensitivity score (COG-LL-332h) | selective drug sensitivity score (KOPN-8) | selective drug sensitivity score (MHH-CALL-2) | selective drug sensitivity score (MOLT-14) | selective drug sensitivity score (NALM-6) | selective drug sensitivity score (REH) | selective drug sensitivity score (P12-ICHIKAWA) | selective drug sensitivity score (RCH-ACV) | selective drug sensitivity score (PEER) | selective drug sensitivity score (PF-382) | selective drug sensitivity score (NALL-1) | selective drug sensitivity score (HAL-01) | selective drug sensitivity score (ALL-PO) | selective drug sensitivity score (RPMI-8402)
COc1cc(Nc2ncc3c(n2)-c2ccc(Cl)cc2C(c2c(F)cccc2OC)=NC3)ccc1C(=O)O [Alisertib] (top concentration 10000 nM) | 11 | 29.6 | 2.28 | 14.6 | 21.5 | 25.4 | 24.8 | 21.3 | 14.9 | 21 | 20.1 | 14.4 | 22.6 | 24.3 | 26.6 | 14.3 | 16.2 | 17.8 | 15.6 | 10.2
Nc1ncnc2c1nc(N)n2[C@@H]1O[C@H](CO)[C@@H](O)[C@H]1O [8-amino-adenosine] (top concentration 50000 nM) | 2.68 | 5.68 | 6.58 | 3.28 | 6.48 | 6.18 | 3.18 | 7.48 | 3.28 | 5.18 | 6.68 | 2.88 | 0.38 | 6.68 | 5.98 | 0.18 | 2.08 | 7.08 | 5.48 | 0.18
C[C@H]1C=C2C(=O)O[C@H]3CC[C@@H](C1)[C@@]23O [Galiellalactone] (top concentration 25000 nM) | 1.46 | 3.36 | -0.74 | 4.56 | 5.86 | 5.26 | 6.06 | 4.16 | 4.16 | 5.26 | 5.16 | 3.66 | 1.86 | 7.76 | 1.66 | 4.16 | -4.54 | 6.06 | -0.34 | 0.06
C=CC(=O)N1CC/C(=C\c2ccc(F)c([N+](=O)[O-])c2)C(=O)/C(=C/c2ccc(F)c([N+](=O)[O-])c2)C1 [VLX1570] (top concentration 10000 nM) | -2.62 | -1.32 | -1.92 | 1.58 | 1.58 | 1.88 | -0.52 | 3.88 | -3.32 | -0.92 | 4.08 | 1.98 | -4.92 | 1.58 | -4.72 | -1.72 | -4.52 | -2.52 | 0.38 | -6.52
CN(c1ncccc1CNc1nc(Nc2ccc3c(c2)CC(=O)N3)ncc1C(F)(F)F)S(C)(=O)=O (top concentration 10000 nM) | -3.28 | 2.82 | -0.08 | 6.62 | -0.28 | 2.72 | 2.02 | 1.02 | -1.28 | -0.08 | 5.22 | 5.12 | -0.08 | 3.62 | 7.22 | -0.78 | 2.42 | -0.18 | 6.62 | 1.52
O=C(/C=C/c1cccc(S(=O)(=O)Nc2ccccc2)c1)NO [Belinostat] (top concentration 10000 nM) | 6.3 | 10.1 | 2.1 | 7.6 | 8.7 | 8 | 7.9 | 17.8 | 11 | 12.2 | 7.4 | 5.1 | 8.6 | 14.3 | 7.8 | 8.4 | 2.4 | 5.6 | 11.4 | 7.3
COC12C(COC(N)=O)C3=C(C(=O)C(C)=C(N)C3=O)N1CC1NC12 (stereo in doubt) [Mitomycin_C] (top concentration 10000 nM) | -1.96 | -2.86 | -2.86 | -2.86 | -2.86 | 2.24 | -2.86 | 4.24 | 1.54 | -2.86 | -2.86 | 3.74 | -2.86 | 4.84 | -2.86 | -2.86 | -2.86 | 0.74 | -0.76 | -2.86
CC(C)(C)c1nc(-c2cccc(NS(=O)(=O)c3c(F)cccc3F)c2F)c(-c2ccnc(N)n2)s1 [Dabrafenib] (top concentration 2500 nM) | 1.18 | 4.68 | -0.22 | 0.58 | 0.58 | 5.18 | 1.68 | 8.48 | 9.18 | 1.48 | -0.52 | -1.52 | 1.18 | 0.88 | 3.48 | 0.38 | -1.42 | 1.18 | -0.22 | -1.12
CN1CCC(CNc2ccc3ncc(-c4cccc(OC(F)(F)F)c4)n3n2)CC1 [SGI-1776] (top concentration 10000 nM) | -0.98 | -3.28 | 0.82 | 4.82 | 0.52 | 0.12 | 0.22 | -0.78 | 1.22 | 0.32 | -3.08 | -2.78 | -2.98 | 0.62 | -0.58 | -2.68 | -2.18 | 1.92 | 7.02 | -2.68
CC(C)[C@H](C(=O)Nc1ccc(C(=O)NO)cc1)c1ccccc1 [AR-42] (top concentration 10000 nM) | 5.28 | 8.38 | 2.08 | 6.88 | 6.68 | 5.18 | 4.68 | 10.6 | 11 | 8.48 | 4.48 | 5.38 | 8.28 | 13.9 | 9.18 | 5.78 | 3.68 | 3.28 | 10.7 | 8.18
Nc1ccccc1NC(=O)c1ccc(CNC(=O)OCc2cccnc2)cc1 [Entinostat] (top concentration 10000 nM) | 5.38 | 6.58 | -3.72 | 3.68 | 3.78 | 5.68 | -0.62 | 11.6 | 8.98 | 7.98 | 1.08 | 2.68 | 7.58 | 9.98 | 6.88 | 2.08 | -0.82 | 2.58 | 4.08 | 5.08
Cc1[nH]nc(C(F)(F)F)c1Cc1sc2c(c1C(=O)N1C[C@](C)(O)CO1)c(=O)n(C)c(=O)n2C(C)C [AZD3965] (top concentration 1000 nM) | 2.6 | 0 | 0 | 0 | 0.3 | 1.8 | 0 | 0 | 1.4 | 0 | 11.1 | 3.6 | 0 | 0 | 0 | 1.7 | 3.8 | 1 | 3.8 | 12.6
CN(C)C1CCN(C(=O)c2ccc(NC(=O)Nc3ccc(-c4nc(N5CCOCC5)nc(N5CCOCC5)n4)cc3)cc2)CC1 [Gedatolisib] (top concentration 1000 nM) | 0.66 | 15.9 | 0.56 | 1.36 | 7.26 | 15.2 | 4.96 | 10.1 | 3.26 | -3.24 | 5.16 | 9.16 | 3.16 | 17.5 | 4.06 | 5.06 | 1.16 | -4.54 | 1.06 | 3.66
CC(C)(C)Cn1c(N)nc2ccc(-c3[nH]c(C(C)(C)C)nc3-c3ccc(F)cc3)nc21 [Ralimetinib] (top concentration 10000 nM) | -0.74 | 12.6 | 4.16 | 0.86 | 2.26 | 4.66 | 2.56 | 4.26 | 1.46 | 6.96 | -0.24 | 2.36 | 1.86 | 11.5 | 2.26 | 2.06 | -0.84 | -0.74 | 8.56 | 4.26
CC(C)[C@@H](CS(=O)(=O)C(C)C)N1C(=O)[C@@](C)(CC(=O)O)C[C@H](c2cccc(Cl)c2)[C@H]1c1ccc(Cl)cc1 [AMG-232] (top concentration 10000 nM) | 6.76 | 8.06 | 8.76 | 10.1 | -7.34 | 8.96 | 9.26 | 10.4 | 11.7 | 10.1 | 7.96 | 8.36 | -8.24 | 12.1 | -6.94 | -8.94 | -8.14 | 11 | -6.94 | -9.14
C[C@@H](Nc1cc(F)cc(F)c1)c1cc(C(=O)N(C)C)cc2c(=O)cc(N3CCOCC3)oc12 [AZD-8186] (top concentration 1000 nM) | -0.26 | -0.26 | -0.26 | -0.26 | -0.26 | 7.24 | -0.26 | 3.44 | 4.64 | -0.26 | 5.14 | 9.54 | -0.26 | 14.9 | -0.26 | 0.54 | 2.34 | 8.14 | 0.34 | 0.44
CCNC(=O)C[C@@H]1N=C(c2ccc(Cl)cc2)c2cc(OC)ccc2-n2c(C)nnc21 [Molibresib] (top concentration 10000 nM) | 5.2 | 4.9 | -2.1 | 5.3 | 0.8 | 6.4 | -2.4 | 10.6 | 8.4 | -2.1 | 3.2 | 0.8 | 3 | 7.7 | -3 | 2.7 | 3.4 | 2.7 | 3.6 | 1.4
Nc1cc(C(F)(F)F)c(-c2cc(N3CCOCC3)nc(N3CCOCC3)n2)cn1 [Buparlisib] (top concentration 10000 nM) | -1.82 | 4.08 | 0.38 | 2.48 | 5.28 | 7.28 | 3.58 | 7.28 | 5.28 | 5.48 | 4.78 | 5.18 | 3.28 | 13.3 | 6.48 | 5.38 | 1.28 | 4.98 | 9.58 | 6.88
